Test results published in patent publication US7119221B2, “Cycloalkyl-hydroxyl compounds and compositions for cholesterol management and related uses” (Esperion Therapeutics, Inc., priority 2003, dated 2006).

Columns and labels:
primary rat hepatocytes = experiment: Inhibition of lipid synthesis ([1-14C]-acetate incorporation) in primary cultures of rat hepatocytes; type: cell-based; conditions: Hepatocyte, 4 hour incubation with [1-14C]-acetate, 0-300 μM compound
Description: Compounds were tested for inhibition of lipid synthesis in primary cultures of rat hepatocytes. Male Sprague-Dawley rats were anesthetized with intraperitoneal injection of sodium pentobarbital (80 mg/kg). Rat hepatocytes were isolated essentially as described by the method of Seglen (Seglen, P. O. Hepatocyte suspensions and cultures as tools in experimental carcinogenesis. J. Toxicol. Environ. Health 1979, 5, 551–560). Hepatocytes were suspended in Dulbecco's Modified Eagles Medium containing 25 mM D-glucose, 14 mM HEPES, 5 mM L-glutamine, 5 mM leucine, 5 mM alanine, 10 mM lactate, 1 mM pyruvate, 0.2% bovine serum albumin, 17.4 mM non-essential amino acids, 20% fetal bovine serum, 100 nM insulin and 20 μg/mL gentamycin) and plated at a density of 1.5×10^5 cells/cm^2 on collagen-coated 96-well plates. Four hours after plating, media was replaced with the same media without serum. Cells were grown overnight to allow formation of monolayer cultures. Lipid synthesis incubation conditions were initially assessed to ensure the linearity of [1-^14C]-acetate incorporation into hepatocyte lipids for up to 4 hours. Hepatocyte lipid synthesis inhibitory activity was assessed during incubations in the presence of 0.25 μCi [1-^14C]-acetate/well (final radiospecific activity in assay is 1 Ci/mol) and 0, 1, 3, 10, 30, 100 or 300 μM of compounds for 4 hours. At the end of the 4-hour incubation period, medium was discarded and cells were washed twice with ice-cold phosphate buffered saline and stored frozen prior to analysis. To determine total lipid synthesis, 170 μl of MicroScint-E® and 50 μl water was added to each well to extract and partition the lipid soluble products to the upper organic phase containing the scintillant. Lipid radioactivity was assessed by scintillation spectroscopy in a Packard TopCount NXT.

obese female Zucker rats = experiment: Oral daily treatment of chow fed obese female Zucker rats for fourteen days: serum lipids, glycemic control indicators, body weight; type: in vivo, rat; conditions: oral gavage, 14 days; for % wt. gain: obese female Zucker rats; for Glucose, Percent of Pre-treatment: blood glucose after 6 hour fast; for HDL-C, Percent of Pre-treatment / Insulin, Percent of Pre-treatment / Non-HDL-C, Percent of Pre-treatment: serum; for BHA, Percent of Pre-treatment: serum beta-hydroxy butyric acid; for NEFA, Percent of Pre-treatment: serum non-esterified fatty acids; for HDL-C/non-HDL-C: serum ratio; for TC, Percent of Pre-treatment: serum total cholesterol; for TG, Percent of Pre-treatment: serum triglycerides
Description: In a number of different experiments, illustrative compounds of the invention are administered daily at a dose of up to 100 mg/kg to chow fed obese female Zucker rats for fourteen days in the morning by oral gavage in 1.5% carboxymethylcellulose/0.2% Tween 20 or 20% ethanol/80% polyethylene glycol (dosing vehicles). Animals are weighed daily. Animals are allowed free access to rodent chow and water throughout the study except on days of blood sampling where food is restricted for six hours prior to blood sampling. Blood glucose is determined after the 6 hour fast in the afternoon without anesthesia from a tail vein. Serum is also prepared from pretreatment blood samples subsequently obtained from the orbital venous plexus (with O2/CO2 anesthesia) and following the fourteenth dose at sacrifice from the heart following O2/CO2 anesthesia. Serums are assayed for lipoprotein cholesterol profiles, triglycerides, total cholesterol, Non-HDL cholesterol, HDL cholesterol, the ratio of HDL cholesterol to that of Non-HDL cholesterol, insulin, non-esterified fatty acids, and beta-hydroxy butyric acid. The percent body weight gain and the ratio of liver to body weight is also determined. These are shown as absolute values or as a percent change of the pretreatment values in Table 1.

Compound	IC50 (primary rat hepatocytes) [µM]	% wt. gain (obese female Zucker rats; 100 mg/kg/day) [%]	Glucose, Percent of Pre-treatment (obese female Zucker rats; 100 mg/kg/day) [%]	HDL-C, Percent of Pre-treatment (obese female Zucker rats; 100 mg/kg/day) [%]	Insulin, Percent of Pre-treatment (obese female Zucker rats; 100 mg/kg/day) [%]	Non-HDL-C, Percent of Pre-treatment (obese female Zucker rats; 100 mg/kg/day) [%]	BHA, Percent of Pre-treatment (obese female Zucker rats; 100 mg/kg/day) [%]	NEFA, Percent of Pre-treatment (obese female Zucker rats; 100 mg/kg/day) [%]	HDL-C/non-HDL-C (obese female Zucker rats; 100 mg/kg/day)	TC, Percent of Pre-treatment (obese female Zucker rats; 100 mg/kg/day) [%]	TG, Percent of Pre-treatment (obese female Zucker rats; 100 mg/kg/day) [%]	further results
O=C(O)C1(CCCCC(O)CCCCC2(C(=O)O)CC2)CC1 [F]	1.8											
CC(C)(CCCCCC(O)CCCCCC1(C(=O)O)CC1)C(=O)O (stereo not shown) [D]	1.4	−1.7	−13	15	−70	−98	195	−44	785	−11	−97	
O=C(O)C1(CCCCCC(O)CCCCCC2(C(=O)O)CCCC2)CCCC1 [Compound 6.33, 1-[11-(1-Carboxycyclopentyl)-6-hydroxyundecyl]-1-cyclopentanecarboxylic acid]												melting point: 76 to 77 °C
CC(C)(CCCCC(O)CCCCC1(C(=O)O)CCC1)C(=O)O (stereo not shown) [A]	12											% wt. gain (obese female Zucker rats; 30 mg/kg/day): 12.3%; Glucose, Percent of Pre-treatment (obese female Zucker rats; 30 mg/kg/day): −1%; HDL-C, Percent of Pre-treatment (obese female Zucker rats; 30 mg/kg/day): 76%; Insulin, Percent of Pre-treatment (obese female Zucker rats; 30 mg/kg/day): −8%; Non-HDL-C, Percent of Pre-treatment (obese female Zucker rats; 30 mg/kg/day): −20%; BHA, Percent of Pre-treatment (obese female Zucker rats; 30 mg/kg/day): 150%; NEFA, Percent of Pre-treatment (obese female Zucker rats; 30 mg/kg/day): −30%; HDL-C/non-HDL-C (obese female Zucker rats; 30 mg/kg/day): 4; TC, Percent of Pre-treatment (obese female Zucker rats; 30 mg/kg/day): 37%; TG, Percent of Pre-treatment (obese female Zucker rats; 30 mg/kg/day): −23%
CC(C)(CCCCC(O)CCCCC1(C(=O)O)CC1)C(=O)O (stereo not shown) [Compound E]	3	10.4	−2	162	2	1	223	−24	5	101	−34	
O=C(O)C1(CCCCCC(O)CCCCCC2(C(=O)O)CC2)CC1 [B]	0.9	4.2	−24	54	−51	−94	254	−23	153	13	−91	
